Assay results: patent EP4603105A1, “PHARMACEUTICAL COMPOSITION CONTAINING CYCLIC COMPOUND HAVING SELECTIVE KRAS INHIBITORY EFFECT AGAINST HRAS AND NRAS” (CHUGAI SEIYAKU KABUSHIKI KAISHA, priority 2022, dated 2024)
pIC50: −log10 of the molar value. Where a SMILES comes first, the peptide text is derived from it. Bridges are numbered along the chain shown (N, C = ends). [ ]: non-standard residue; d: D form. The star is where a group is joined. hPhe(3-Cl-4-CF3) = N[C@@H](CCc1ccc(C(F)(F)F)c(Cl)c1)C(=O)O; NPrPhe(4-CF3) = CCCN[C@@H](Cc1ccc(C(F)(F)F)cc1)C(=O)O; NEtPhe(4-F) = CCN[C@@H](Cc1ccc(F)cc1)C(=O)O; NMeGly(cPent) = CN[C@H](C(=O)O)C1CCCC1; Hyp = O=C(O)[C@@H]1C[C@@H](O)CN1; NMeD = CN[C@@H](CC(=O)O)C(=O)O; NMeL = CN[C@@H](CC(C)C)C(=O)O; Oxazolidin(3-yl) = C1CN(*)CO1; Morpholide = C1CN(*)CCO1; NMeA = CN[C@@H](C)C(=O)O; Ac5c = NC1(C(=O)O)CCCC1; Aze = O=C(O)[C@@H]1CCN1; Ac4c = NC1(C(=O)O)CCC1; Sar = CNCC(=O)O

Key:
[1] = molecular target: GDP-bound NRAS wild-type protein (Homo sapiens, UniProt P01111); assay: Binding to NRAS by surface plasmon resonance (SPR), KD and KD ratio to KRAS
How it was run: (§1)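 Recombinant RAS proteins bearing a biotinylated Avi tag and loaded with GDP served as the captured ligand, recaptured fresh every cycle. Binding responses were referenced to an uncoated surface and a buffer-only blank cycle. Dissociation constants were obtained by 1:1 model fitting at 30°C.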

HRAS wild-type protein = HRAS wild-type protein (Homo sapiens, UniProt P01112); assay: Binding to HRAS by surface plasmon resonance (SPR), KD and KD ratio to KRAS
How it was run: as §1

[2] = tested on: human lung cancer strain NCI-H441; assay type: cell-based
How it was run: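 Signal came from […] measured per well once the reagent was added. Beforehand, cells were cultured at 37°C and 5% carbon dioxide on a compound series serially diluted in dimethyl sulfoxide.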

[3] = ratio of KD for GDP-bound NRAS wild-type protein to KD for KRAS
[4] = ratio of KD for HRAS wild-type protein to KD for KRAS
[5] = ratio of KD value for GDP-bound NRAS wild-type protein to KD value for KRAS (SPR)
[6] = ratio of KD value for HRAS wild-type protein to KD value for KRAS (SPR)
[7] = ratio of the KD value with respect to GDP-bound NRAS wild-type protein to the KD value with respect to KRAS
[8] = ratio of the KD value with respect to HRAS wild-type protein to the KD value with respect to KRAS

HRAS wild-type protein, sequence (P01112 whole entry): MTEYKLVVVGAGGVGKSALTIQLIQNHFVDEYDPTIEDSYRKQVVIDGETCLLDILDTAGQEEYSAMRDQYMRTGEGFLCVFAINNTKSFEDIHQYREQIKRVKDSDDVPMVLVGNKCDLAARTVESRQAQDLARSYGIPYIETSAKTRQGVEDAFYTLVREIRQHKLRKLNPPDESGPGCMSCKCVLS
GDP-bound NRAS wild-type protein, sequence (P01111 whole entry): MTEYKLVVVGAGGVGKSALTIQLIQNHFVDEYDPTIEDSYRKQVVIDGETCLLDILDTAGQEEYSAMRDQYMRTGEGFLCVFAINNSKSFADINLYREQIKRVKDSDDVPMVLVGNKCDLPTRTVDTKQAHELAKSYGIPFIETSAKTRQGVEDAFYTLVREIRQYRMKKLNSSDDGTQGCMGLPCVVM

Row | Compound | NRAS /KRAS [1, 3] | HRAS /KRAS (HRAS wild-type protein; [4]) | pIC50 [2] | NRAS /KRAS [1, 5] | HRAS /KRAS (HRAS wild-type protein; [6]) | NRAS /KRAS [1, 7] | HRAS /KRAS (HRAS wild-type protein; [8])
1 | CCO[C@@H]1C[C@H]2C(=O)NC3(CC(C)(C)C3)C(=O)N(C)[C@@H](C3CCCC3)C(=O)N(C)[C@H](C(=O)N3CCCC3)CC(=O)N(C)[C@H]3CCC/C=C/c4ccc(cc4)C[C@@H](C(=O)N(C)CC(=O)N[C@@H](CCc4cc(F)c(C(F)(F)F)c(F)c4)C(=O)N2C1)N1CC/C=C\C[C@@H](C1=O)N(C)C(=O)CN(C1CC1)C(=O)[C@H]([C@@H](C)CC)NC3=O [PP2583] | A (a compound having 10 or more and less than 20 is denoted as A) | A (a compound having 10 or more and less than 20 is denoted as A) | 8.39 | – | – | – | –
2 | CC[C@H](C)[C@@H]1NC(=O)[C@H](CC(C)C)N(C)C(=O)C[C@@H](C(=O)N2CCOCC2)N(C)C(=O)[C@H](C2CCCC2)N(C)C(=O)C2(CCCC2)NC(=O)[C@@H]2CCCN2C(=O)[C@H](CCc2ccc(C(F)(F)F)c(Cl)c2)NC(=O)CN(C)C(=O)[C@H](Cc2ccc(F)cc2)N(CC)C(=O)CN(C)C(=O)CN(C)C1=O [PP0213] ([NMeL]I[Sar][Sar][NEtPhe(4-F)][Sar][hPhe(3-Cl-4-CF3)]P[Ac5c][NMeGly(cPent)][NMeD]-Morpholide; lactam N-11) | C (A compound having a KD ratio of 0.1 or more and less than 3 is denoted as C) | C (A compound having a KD ratio of 0.1 or more and less than 3 is denoted as C) | 7.99 | – | – | – | –
3 | CCCN1C(=O)[C@@H]2CCN2C(=O)[C@H](C)N(C)C(=O)[C@H]([C@@H](C)CC)NC(=O)[C@H](CC(C)C)N(C)C(=O)C[C@@H](C(=O)N2CCOC2)N(C)C(=O)[C@H](C2CCCC2)N(C)C(=O)C2(CCCC2)NC(=O)[C@@H]2CCCN2C(=O)[C@H](CCc2ccc(C(F)(F)F)c(Cl)c2)NC(=O)CN(C)C(=O)[C@@H]1Cc1ccc(C(F)(F)F)cc1 [PP0183] ([NMeL]I[NMeA][Aze][NPrPhe(4-CF3)][Sar][hPhe(3-Cl-4-CF3)]P[Ac5c][NMeGly(cPent)][NMeD]-{Oxazolidin(3-yl)}; lactam N-11) | C (A compound having a KD ratio of 0.1 or more and less than 3 is denoted as C) | B (a compound having 3 or more and less than 10 is denoted as B) | 8.80 | – | – | – | –
4 | CCO[C@@H]1C[C@H]2C(=O)NC3(CCC3)C(=O)N(C)[C@@H](C3CCCC3)C(=O)N(C)[C@H](C(=O)N(C)C)CC(=O)N(C)[C@@H](CC)C(=O)N[C@@H]([C@@H](C)CC)C(=O)N(C)CC(=O)N(C)[C@H]3CCCCCN(C3=O)[C@@H](Cc3ccc(F)cc3OC)C(=O)N(C)CC(=O)N[C@@H](CCc3cc(F)c(C(F)(F)F)c(F)c3)C(=O)N2C1 [PP0914] | B (a compound having 3 or more and less than 10 is denoted as B) | B (a compound having 3 or more and less than 10 is denoted as B) | 7.40 | – | – | – | –
5 | CCO[C@@H]1C[C@H]2C(=O)NC3(CC(C)(C)C3)C(=O)N(C)[C@@H](C3CCCC3)C(=O)N(C)[C@H](C(=O)N(C)CC)CC(=O)N(C)[C@H]3CCCC/C=C/c4ccc(cc4)C[C@@H](C(=O)N(C)CC(=O)N[C@@H](CCc4ccc(Cl)c(Cl)c4)C(=O)N2C1)N1CC/C=C\C[C@@H](C1=O)N(C)C(=O)CN(C)C(=O)[C@H]([C@@H](C)CC)NC3=O [PP2592] | A (a compound having 10 or more and less than 20 is denoted as A) | A (a compound having 10 or more and less than 20 is denoted as A) | 8.10 | – | – | – | –
6 | CCCN(C)C(=O)[C@@H]1CC(=O)N(C)[C@@H](COC)C(=O)N[C@@H]([C@@H](C)CC)C(=O)N(C)CC(=O)N(C)[C@H]2C/C=C\CCN(C2=O)[C@@H](Cc2ccc(C(F)(F)F)cc2)C(=O)N(C)CC(=O)N[C@@H](CCc2cc(F)c(Cl)c(F)c2)C(=O)N2C[C@H](OCC)C[C@H]2C(=O)NC2(CC(C)(C)C2)C(=O)N(C)[C@@H](C2CCCC2)C(=O)N1C [PP1763] | – | – | 7.88 | A (a compound having 10 or more and less than 20 is denoted as A) | A (a compound having 10 or more and less than 20 is denoted as A) | – | –
7 | CCCN1C(=O)CN(C)C(=O)CN(C)C(=O)[C@H]([C@@H](C)CC)NC(=O)[C@H](CC(C)C)N(C)C(=O)C[C@@H](C(=O)N2CCOCC2)NC(=O)[C@H](C2CCCC2)N(C)C(=O)C2(CCC2)NC(=O)[C@@H]2C[C@@H](OCC)CN2C(=O)[C@H](CCc2ccc(C(F)(F)F)c(Cl)c2)NC(=O)CN(C)C(=O)[C@@H]1Cc1ccc(C(F)(F)F)cc1 [PP0324] ([NMeL]I[Sar][Sar][NPrPhe(4-CF3)][Sar][hPhe(3-Cl-4-CF3)][Hyp](Et)[Ac4c][NMeGly(cPent)]D-Morpholide; lactam N-11) | B (a compound having 3 or more and less than 10 is denoted as B) | B (a compound having 3 or more and less than 10 is denoted as B) | 7.41 | – | – | – | –
8 | CCO[C@@H]1C[C@H]2C(=O)NC3(CCC3)C(=O)N(C)[C@@H](C3CCCC3)C(=O)N(C)[C@H](C(=O)N(C)CC)CC(=O)N(C)[C@@H](C3CCC3)C(=O)N[C@@H]([C@@H](C)CC)C(=O)N(C)CC(=O)N(C)[C@H]3C/C=C\CCN(C3=O)[C@@H](Cc3ccc(C(F)(F)F)cc3)C(=O)N(C)CC(=O)N[C@@H](CCc3cc(F)c(C(F)(F)F)c(F)c3)C(=O)N2C1 [PP1996] | – | – | 7.81 | – | – | A (a compound having 10 or more and less than 20 is denoted as A) | B (a compound having 3 or more and less than 10 is denoted as B)
9 | CCCN1C(=O)CN(C)C(=O)[C@H](C)NC(=O)[C@H]([C@@H](C)CC)NC(=O)[C@H](CC(C)C)N(C)C(=O)C[C@@H](C(=O)N2CCOCC2)N(C)C(=O)[C@H](C2CCCC2)N(C)C(=O)C2(CCCC2)NC(=O)[C@@H]2CCCN2C(=O)[C@H](CCc2ccc(C(F)(F)F)c(Cl)c2)NC(=O)CN(C)C(=O)[C@@H]1Cc1ccc(C(F)(F)F)cc1 [PP1971] ([NMeL]IA[Sar][NPrPhe(4-CF3)][Sar][hPhe(3-Cl-4-CF3)]P[Ac5c][NMeGly(cPent)][NMeD]-Morpholide; lactam N-11) | – | – | 7.42 | – | – | B (a compound having 3 or more and less than 10 is denoted as B) | B (a compound having 3 or more and less than 10 is denoted as B)
10 | CC[C@H](C)[C@@H]1NC(=O)[C@H](CC(C)C)N(C)C(=O)C[C@@H](C(=O)N(C)C)N(C)C(=O)[C@H](C2CCCC2)N(C)C(=O)C2(CCC2)NC(=O)[C@@H]2C[C@H](C)CN2C(=O)[C@H](CCc2cc(F)c(C(F)(F)F)c(F)c2)NC(=O)CN(C)C(=O)[C@H](Cc2ccc(C)cc2)N2CC/C=C\C[C@@H](C2=O)N(C)C(=O)CN(C)C1=O [PP1864] | – | – | 7.99 | A (a compound having 10 or more and less than 20 is denoted as A) | B (a compound having 3 or more and less than 10 is denoted as B) | – | –
11 | CCCO[C@H](C)[C@@H]1NC(=O)[C@H](CC(C)C)N(C)C(=O)C[C@@H](C(=O)N(C)C)N(C)C(=O)[C@H](C2CCCC2)N(C)C(=O)C2(CC(C)(C)C2)NC(=O)[C@@H]2C[C@@H](OCC)CN2C(=O)[C@H](CCc2cc(F)c(C(F)(F)F)c(F)c2)NC(=O)CN(C)C(=O)[C@H](Cc2ccc(C(F)(F)F)cc2)N2CC/C=C\C[C@@H](C2=O)N(C)C(=O)CN(C)C1=O [PP1921] | – | – | 8.11 | – | – | A (a compound having 10 or more and less than 20 is denoted as A) | A (a compound having 10 or more and less than 20 is denoted as A)
